For series [1], the system named is SARS-CoV-2. Put plainly: Antiviral activity against SARS CoV-2 Wuhan infected in African green monkey Vero E6 cells assessed as virus inactivation at 5 uM pretreated for 15 mins followed by compound removal and induction of viral infection for 1 hr and subsequent removal of inoculum and further addition of media containing compound measured after 48 hrs by RT-qPCR analysis relative to control. The format is functional, Severe acute respiratory syndrome coronavirus 2. The note with it: time 48.25 hrs.

In series [2] the test system is SARS-CoV-2. Put plainly: Antiviral activity against SARS CoV-2 Wuhan infected in African green monkey Vero E6 cells assessed as inhibition of viral replication pretreated for 15 mins followed by compound removal and induction of viral infection for 1 hr and subsequent removal of inoculum and further addition of media containing compound measured after 24 hrs by cell-based ELISA. The format is functional, organism-based. The note with it: for IC50: Severe acute respiratory syndrome coronavirus 2, Wuhan, Vero C1008. (In general: ELISA stands for enzyme-linked immunosorbent assay.)

For series [3], the system named is Vero C1008. The series is described as follows: (§1) Cytotoxicity against African green monkey Vero E6 cells assessed as cell viability at 5 uM incubated for 48 hrs by MTT assay. Conditions: chlorocebus sabaeus, vero c1008, 48 h, 5 µM. The format is toxicity, cell-based. A general note: Tetrazolium dyes change colour on reduction, which living cells bring about.
The target of series [4] is T1, Voltage-gated inwardly rectifying potassium channel KCNH2 (Homo sapiens, UniProt Q12809). Put plainly: Inhibition of hERG extracted from membrane (unknown origin) incubated for 4 hrs by fluorescence polarization assay. The format is toxicity, cell membranes. On the technique in general: hERG is a cardiac potassium channel; its block is linked to QT prolongation.
T1 sequence (Q12809 whole entry): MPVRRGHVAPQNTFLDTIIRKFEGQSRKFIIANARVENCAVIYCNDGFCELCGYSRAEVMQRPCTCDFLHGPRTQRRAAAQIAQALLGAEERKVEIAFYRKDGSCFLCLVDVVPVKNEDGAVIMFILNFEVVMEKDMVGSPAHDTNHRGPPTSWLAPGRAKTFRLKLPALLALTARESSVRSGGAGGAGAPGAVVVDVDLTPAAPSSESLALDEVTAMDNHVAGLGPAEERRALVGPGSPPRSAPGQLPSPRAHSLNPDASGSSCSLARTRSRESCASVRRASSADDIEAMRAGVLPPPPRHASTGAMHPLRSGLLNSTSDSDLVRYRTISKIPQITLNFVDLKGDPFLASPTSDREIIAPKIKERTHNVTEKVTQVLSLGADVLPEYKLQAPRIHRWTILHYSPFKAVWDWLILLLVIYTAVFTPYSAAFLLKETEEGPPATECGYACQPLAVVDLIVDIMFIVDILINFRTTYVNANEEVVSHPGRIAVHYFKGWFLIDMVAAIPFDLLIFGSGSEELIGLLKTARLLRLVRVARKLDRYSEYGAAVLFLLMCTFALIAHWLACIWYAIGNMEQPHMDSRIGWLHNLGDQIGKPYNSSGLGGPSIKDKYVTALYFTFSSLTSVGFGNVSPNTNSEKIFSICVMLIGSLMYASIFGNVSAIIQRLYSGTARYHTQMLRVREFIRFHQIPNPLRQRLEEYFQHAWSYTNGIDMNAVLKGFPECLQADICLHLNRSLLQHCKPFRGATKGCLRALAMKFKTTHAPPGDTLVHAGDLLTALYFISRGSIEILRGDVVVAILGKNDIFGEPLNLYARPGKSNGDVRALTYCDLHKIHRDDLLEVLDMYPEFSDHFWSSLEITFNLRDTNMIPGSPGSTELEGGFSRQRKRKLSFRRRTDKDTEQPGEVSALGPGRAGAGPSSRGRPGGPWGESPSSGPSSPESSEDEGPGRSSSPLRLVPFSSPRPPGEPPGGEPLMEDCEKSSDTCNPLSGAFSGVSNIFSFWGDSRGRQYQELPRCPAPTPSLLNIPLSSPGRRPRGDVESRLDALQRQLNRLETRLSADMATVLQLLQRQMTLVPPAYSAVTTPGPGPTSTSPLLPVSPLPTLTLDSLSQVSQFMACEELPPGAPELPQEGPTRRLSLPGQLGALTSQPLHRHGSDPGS
For series [5], the target named is T1, Voltage-gated inwardly rectifying potassium channel KCNH2. The series is described as follows: Inhibition of hERG. The format is toxicity.
The subject of series [6] is SARS-CoV-2. The series is described as follows: Antiviral activity against SARS CoV-2 Wuhan infected in African green monkey Vero E6 cells assessed as virus inactivation at 1 uM pretreated for 15 mins followed by compound removal and induction of viral infection for 1 hr and subsequent removal of inoculum and further addition of media containing compound measured after 48 hrs by RT-qPCR analysis relative to control. The format is functional, Severe acute respiratory syndrome coronavirus 2. Conditions: time 48.25 hrs.

For series [7], the system named is Vero C1008. Put plainly: Cytotoxicity against African green monkey Vero E6 cells assessed as cell viability at 1 uM incubated for 48 hrs by MTT assay. The format is toxicity, cell-based. Conditions: chlorocebus sabaeus, vero c1008, 48 h.
Series [8] deals with SARS-CoV-2. The series is described as follows: Antiviral activity against SARS CoV-2 Wuhan infected in African green monkey Vero E6 cells assessed as virus inactivation at 10 uM pretreated for 15 mins followed by compound removal and induction of viral infection for 1 hr and subsequent removal of inoculum and further addition of media containing compound measured after 48 hrs by RT-qPCR analysis relative to control. Conditions: time 48.25 hrs. The format is functional, Severe acute respiratory syndrome coronavirus 2.

The nature of series [9]: as §1. The format is toxicity, cell-based, Vero C1008. Conditions: chlorocebus sabaeus, Vero E6 cells, read-out: Activity.
Series [10] can be described thus: Microsomal stability in human liver microsomes assessed as compound remaining at 100 uM preincubated for 15 mins followed by NADPH addition measured after 60 mins by LC-MS/MS analysis. The format is ADME, Microsome. The note with it: time 75 min, read-out: Stability.
The nature of series [11]: Microsomal stability in mouse liver microsomes assessed as compound remaining at 100 uM preincubated for 15 mins followed by NADPH addition measured after 60 mins by LC-MS/MS analysis. The note with it: time 75 min, read-out: Stability. The format is ADME, Microsome.
Series [12] can be described thus: Microsomal stability in human liver microsomes assessed as intrinsic clearance measured per mg protein at 100 uM preincubated for 15 mins followed by NADPH addition measured up to 60 mins by LC-MS/MS analysis. The format is ADME, Microsome. Conditions: time < 75 min, read-out: CLH.
Series [13] in a line: Stability in mouse plasma assessed as half life at 2 uM measured up to 120 mins by LC-MS/MS analysis. The format is ADME, cell-free.
Series [14] relates to SARS-CoV-2. The series is described as follows: Potency index, ratio of Arbidol IC50 to test compound IC50 for antiviral activity against SARS CoV-2 Wuhan infected in African green monkey Vero E6 cells assessed as inhibition of viral replication pretreated for 15 mins followed by compound removal and induction of viral infection for 1 hr and subsequent removal of inoculum and further addition of media containing compound measured after 24 hrs …. The format is functional, Severe acute respiratory syndrome coronavirus 2. The note with it: time 24.25 hrs.

A short description of series [15]: Microsomal stability in mouse liver microsomes assessed as intrinsic clearance measured per mg protein at 100 uM preincubated for 15 mins followed by NADPH addition measured up to 60 mins by LC-MS/MS analysis. The format is ADME, Microsome. Conditions: time < 75 min, read-out: CLH.
Series [16] in a line: Microsomal stability in human liver microsomes assessed as half life at 100 uM preincubated for 15 mins followed by NADPH addition measured up to 60 mins by LC-MS/MS analysis. The format is ADME, Microsome. The note with it: time < 75 min.
A short description of series [17]: Stability in human plasma assessed as compound remaining at 2 uM measured after 60 mins by LC-MS/MS analysis. The format is ADME, cell-free. Conditions: read-out: Stability.
Series [18] can be described thus: Microsomal stability in mouse liver microsomes assessed as half life at 100 uM preincubated for 15 mins followed by NADPH addition measured up to 60 mins by LC-MS/MS analysis. Conditions: time < 75 min. The format is ADME, Microsome.
Series [19] is described as follows: Lipophilicity, LogD of compound in sodium phosphate buffer/n-octanol incubated for 3 hrs by LC-UV analysis. The format is physicochemical.
In series [20] the test system is SARS-CoV-2. The series is described as follows: Antiviral activity against SARS CoV-2 Wuhan infected in African green monkey Vero E6 cells assessed as decrease in spike protein expression at 0.7 uM incubated for 48 hrs by immunofluorescence based analysis. The note with it: Severe acute respiratory syndrome coronavirus 2. The format is functional, organism-based.

Series [21] in a line: Stability in human plasma assessed as half life at 2 uM measured up to 120 mins by LC-MS/MS analysis. The format is ADME, cell-free.
Series [22] deals with SARS-CoV-2. The series is described as follows: Antiviral activity against SARS CoV-2 Wuhan infected in African green monkey Vero E6 cells assessed as decrease in green fluorescence at 0.7 uM incubated for 48 hrs by confocal microscopy. The format is functional, organism-based. Conditions: Severe acute respiratory syndrome coronavirus 2.
Series [23] deals with SARS-CoV-2. The series is described as follows: Antiviral activity against SARS CoV-2 Wuhan infected in African green monkey Vero E6 cells assessed as decrease in viral particles at 0.7 uM incubated for 48 hrs by confocal microscopy. The format is functional, organism-based. The note with it: Severe acute respiratory syndrome coronavirus 2.
The nature of series [24]: Stability in mouse plasma assessed as compound remaining at 2 uM measured after 60 mins by LC-MS/MS analysis. The format is ADME, cell-free. Conditions: read-out: Stability.
Series [25] can be described thus: Volume of distribution at steady state in female C57BL/6 mouse at 2 mg/kg, iv. The format is ADME, organism-based. Conditions: in vivo, read-out: Vdss.
Series [26] deals with SARS-CoV-2. Put plainly: Antiviral activity against SARS CoV-2 Wuhan infected in African green monkey Vero E6 cells assessed as decrease in spike protein expression at 0.5 uM incubated for 48 hrs by immunofluorescence based analysis. The format is functional, organism-based. Conditions: Severe acute respiratory syndrome coronavirus 2.
The nature of series [27]: Cmax in female C57BL/6 mouse at 20 mg/kg, po. Conditions: in vivo. The format is ADME, organism-based.
The nature of series [28]: AUC (0 to infinity) in female C57BL/6 mouse at 20 mg/kg, po. The note with it: in vivo. The format is ADME, organism-based.
The subject of series [29] is SARS-CoV-2. The series is described as follows: Antiviral activity against SARS CoV-2 Wuhan infected in African green monkey Vero E6 cells assessed as decrease in viral particles at 0.5 uM incubated for 48 hrs by confocal microscopy. The format is functional, organism-based. The note with it: Severe acute respiratory syndrome coronavirus 2.
The nature of series [30]: Clearance in female C57BL/6 mouse at 2 mg/kg, iv. The format is ADME, organism-based. Conditions: in vivo.
Series [31] is described as follows: Half life in female C57BL/6 mouse at 2 mg/kg, iv. The format is ADME, organism-based. Conditions: in vivo.
Series [32] is described as follows: Oral bioavailability in female C57BL/6 mouse at 20 mg/kg. The note with it: in vivo. The format is ADME, organism-based.
Series [33] has as its system SARS-CoV-2. Put plainly: Antiviral activity against SARS CoV-2 Wuhan infected in African green monkey Vero E6 cells assessed as decrease in green fluorescence at 0.5 uM incubated for 48 hrs by confocal microscopy. The note with it: Severe acute respiratory syndrome coronavirus 2. The format is functional, organism-based.
Series [34] in a line: AUC (0 to infinity) in female C57BL/6 mouse at 2 mg/kg, iv. The note with it: in vivo. The format is ADME, organism-based.
Series [35] is described as follows: Tmax in female C57BL/6 mouse at 20 mg/kg, po. The format is ADME, organism-based. Conditions: in vivo.

Data on 4 compounds can be found in ChEMBL document CHEMBL6134895, “Strategic Design and Optimization of Umifenovir Analogues: Balancing Antiviral Efficacy and hERG Toxicity against SARS-CoV-2” (J Med Chem, 2025).

A word on the IC50: it is the concentration that inhibits the measured activity by half. For orientation: half-life means how long it takes for the measured level to halve. As a reminder, the logD is the decadic logarithm of the distribution of all forms, ionised or not, between an organic phase and buffer at a given pH. Usually Cmax stands for the peak of the concentration-time curve. As usually defined, the AUC(0-inf) is total exposure, with the tail of the curve extrapolated. By clearance is commonly meant the rate of elimination divided by the concentration. As a reminder, the bioavailability is the share of a dose that reaches the circulation, judged against a reference dose that is usually intravenous. As usually defined, the Tmax is the time from dosing to the highest level.

Activity calls are given as the source filed them. No cut-off for these calls is given here.

As to `CCOC(=O)c1c(CSc2ccccc2)n(C)c2cc(Br)c(O)c(CN(C)C)c12` [UMIFENOVIR], the Activity in the series on SARS-CoV-2 [1] was under 90%; with Vero C1008 [3], “Non-toxic”. Besides, the half-inhibitory concentration (IC50) was 9 µM with SARS-CoV-2 [2], 0.54 µM in [4] and 0.54 µM in [5].

For `CCOC(=O)c1c(CSc2ccc(C)cc2C)n(C)c2cc(Br)c(O)cc12`, the Activity with SARS-CoV-2 [6] is over 95%; in the series with Vero C1008 [7], “Non-toxic”; with SARS-CoV-2 [8], over 99.9%. For the same compound, the inhibition entry in the series on SARS-CoV-2 [2] (Severe acute respiratory syndrome coronavirus 2, time 24.25 hrs) was “inactive”. Besides, in series [9], the viability at 48 h, 5 µM was determined as 85%.

Turning to `Cc1ccc(Cn2c(CSc3c(C)cc(C)cc3C)c(C(=O)Nc3cnn(C)c3)c3cc(O)c(Br)cc32)cc1`, the remaining at 1 h, 100 µM in [10] was found to be 16.5%; in series [11], 18%. Further, the values for the microsomal CLint at 100 µM in [12] and in series [15] were 28.3 µL/min/mg and 25.8 µL/min/mg, respectively. Besides, the half-life at 2 µM amounted to 52.2 min in series [13] and 42 min in [21]. Also, the “Ratio IC50” value with SARS-CoV-2 [14] is recorded as about 13. The values for the half-life at 100 µM in [16] and in [18] were 24.5 min and 22.1 min, respectively. Besides, the figures for the remaining at 1 h, 2 µM in series [17] and in [24] were 28.6% and 42.5%, respectively. Further, the logD at 3 h in [19] was found to be 1.93. The IC50 was 0.7 µM with SARS-CoV-2 [2] and over 30 µM in [4]. Besides, the outcome in the series with SARS-CoV-2 [20] and in the series with SARS-CoV-2 [22] was Active. Also, the Activity result is “Active; Activity Was Comparable To Remdesivir” in the series with SARS-CoV-2 [23] and “Non-toxic” in the series with Vero C1008 [3].

With `Cc1ccc(Cn2c(CSc3c(C)cc(C)cc3C)c(C(=O)N3CCC(N4CCOCC4)CC3)c3cc(O)c(Br)cc32)cc1`, in [25], the Vd is 13.4 L/kg. The remaining at 1 h, 100 µM in series [10] was 11.4%; in series [11] it was 14.7%. Besides, the microsomal CLint at 100 µM is 35 µL/min/mg in [12] and 31.3 µL/min/mg in series [15]. The half-life at 2 µM was 53.5 min in [13] and 41.1 min in series [21]. In addition, the outcome with SARS-CoV-2 [26] and with SARS-CoV-2 [33] was Active. Further, in series [27], the Cmax stood at 0.148 µg/mL. For the same compound, the “Ratio IC50” value in the series on SARS-CoV-2 [14] is about 13. Besides, the AUC(0-inf) in [28] turned out to be 1.19 µg·h/mL; in [34], 0.352 µg·h/mL. The half-life at 100 µM was 19.8 min in series [16] and 26.9 min in [18]. Besides, the Activity result in the series with SARS-CoV-2 [29] is “Active; Activity Was Comparable To Remdesivir”; with Vero C1008 [3] it was “Non-toxic”. In [30], this compound returned a clearance of 5.55 L/h/kg. In addition, the remaining at 1 h, 2 µM amounted to 27.1% in series [17] and 44% in [24]. Besides, the half-life in [31] is 86.4 min. Also, the bioavailability in series [32] was 33.9%. Moreover, the logD at 3 h in series [19] was found to be 2.45. Besides, the half-maximal inhibitory concentration (IC50) in the series with SARS-CoV-2 [2] came to 0.67 µM; in [4], 15.9 µM. Besides, the Tmax in [35] was 120 min.
